# In patent publication US11207325B2, “Triazolopyrimidine compounds and uses thereof” (Novartis AG, priority 2014, dated 2021):
# Tested on: H3K27 methylation in G401 cell
# Assay: ELISA (H3K27 methylation) assay
# Type: cell-based
# Details: Homo sapiens, G-401; ELISA Qualified assay (H3K27 methylation); read-out: (c) IC50 (μM), ELISA Qualified
# Excerpt: ELISA (H3K27 Methylation) Assay
row,SMILES,IC50 [µM]
1,"Fc1ccc2c(c1CNc1ncc(-c3ccnnc3)c3nncn13)CCO2 [Example 202, N-((5-fluoro-2,3-dihydrobenzofuran-4-yl)methyl)-8-(pyridazin-4-yl)-[1,2,4]triazolo[4,3-c]pyrimidin-5-amine]",0.0206
2,"Cc1c(-c2cnc(NCc3c(F)ccc4c3CCO4)n3cnnc23)ccc[n+]1[O-] [Example 204, 3-(5-(((5-fluoro-2,3-dihydrobenzofuran-4-yl)methyl)amino)-[1,2,4]triazolo[4,3-c]pyrimidin-8-yl)-2-methylpyridine 1-oxide]",0.0103
3,"Fc1ccc2c(c1CNc1ncc(-c3cnccn3)c3nncn13)CCO2 [Example 205, N-((5-fluoro-2,3-dihydrobenzofuran-4-yl)methyl)-8-(pyrazin-2-yl)-[1,2,4]triazolo[4,3-c]pyrimidin-5-amine]",0.0167
4,"Fc1ccc2c(c1CNc1ncc(-c3cncnc3)c3nncn13)CCO2 [Example 206, N-((5-fluoro-2,3-dihydrobenzofuran-4-yl)methyl)-8-(pyrimidin-5-yl)-[1,2,4]triazolo[4,3-c]pyrimidin-5-amine]",0.0159
5,"CN(C)Cc1ccc(-c2cnc(NCc3cccc4occc34)n3cnnc23)cc1 [Example 208, N-(benzofuran-4-ylmethyl)-8-(4-((dimethylamino)methyl)phenyl)-[1,2,4]triazolo[4,3-c]pyrimidin-5-amine]",0.019
6,"CN1CCN(c2ccc(-c3cnc(NCc4cccc5occc45)n4cnnc34)cc2)CC1 [Example 209, N-(benzofuran-4-ylmethyl)-8-(4-(4-methylpiperazin-1-yl)phenyl)-[1,2,4]triazolo[4,3-c]pyrimidin-5-amine]",0.118
7,"CN(C)Cc1ccc(-c2cnc(NCc3c(F)ccc4occc34)n3cnnc23)cc1 [Example 219, 8-(4-((dimethylamino)methyl)phenyl)-N-((5-fluorobenzofuran-4-yl)methyl)-[1,2,4]triazolo[4,3-c]pyrimidin-5-amine]",0.0079
8,"CN1CCC(S(=O)(=O)c2ccc(-c3cnc(NCc4cccc5occc45)n4cnnc34)cc2)CC1 [Example 220, N-(benzofuran-4-ylmethyl)-8-(4-((1-methylpiperidin-4-yl)sulfonyl)phenyl)-[1,2,4]triazolo[4,3-c]pyrimidin-5-amine]",0.467
9,"Cc1cc(C)c(-c2cnc(NCc3c(F)ccc4c3CCO4)n3cnnc23)cn1 [Example 222, 8-(4,6-dimethylpyridin-3-yl)-N-((5-fluoro-2,3-dihydrobenzofuran-4-yl)methyl)-[1,2,4]triazolo[4,3-c]pyrimidin-5-amine]",0.0576
10,"CCOc1ncc(-c2cnc(NCc3c(F)ccc4c3CCO4)n3cnnc23)c(C)n1 [Example 226, 8-(2-ethoxy-4-methylpyrimidin-5-yl)-N-((5-fluoro-2,3-dihydrobenzofuran-4-yl)methyl)-[1,2,4]triazolo[4,3-c]pyrimidin-5-amine]",0.0061
11,"Cn1ncc(-c2cnc(NCc3c(F)ccc4c3CCO4)n3cnnc23)c1CO [Example 227, (4-(5-(((5-fluoro-2,3-dihydrobenzofuran-4-yl)methyl)amino)-[1,2,4]triazolo[4,3-c]pyrimidin-8-yl)-1-methyl-1H-pyrazol-5-yl)methanol]",0.0091
12,"Cc1cnc(Cl)cc1-c1cnc(NCc2c(F)ccc3c2CCO3)n2cnnc12 [Example 228, 8-(2-chloro-5-methylpyridin-4-yl)-N-((5-fluoro-2,3-dihydrobenzofuran-4-yl)methyl)-[1,2,4]triazolo[4,3-c]pyrimidin-5-amine]",0.0292
13,"COc1nccc(-c2cnc(NCc3c(F)ccc4c3CCO4)n3cnnc23)c1C [Example 230, N-((5-fluoro-2,3-dihydrobenzofuran-4-yl)methyl)-8-(2-methoxy-3-methylpyridin-4-yl)-[1,2,4]triazolo[4,3-c]pyrimidin-5-amine]",0.0252
14,"Fc1ccc2c(c1CNc1ncc(-c3ccccn3)c3nncn13)CCO2 [Example 231, N-((5-fluoro-2,3-dihydrobenzofuran-4-yl)methyl)-8-(pyridin-2-yl)-[1,2,4]triazolo[4,3-c]pyrimidin-5-amine]",0.0358
15,"Cc1cncc(-c2cnc(NCc3c(F)ccc4c3CCO4)n3cnnc23)c1 [Example 232, N-((5-fluoro-2,3-dihydrobenzofuran-4-yl)methyl)-8-(5-methylpyridin-3-yl)-[1,2,4]triazolo[4,3-c]pyrimidin-5-amine]",0.0133
16,"Fc1ccc2c(c1CNc1ncc(F)c3nncn13)CCO2 [Example 235, 8-fluoro-N-((5-fluoro-2,3-dihydrobenzofuran-4-yl)methyl)-[1,2,4]triazolo[4,3-c]pyrimidin-5-amine]",0.192
17,"Cc1cn(-c2cnc(NCc3c(F)ccc4c3CCO4)n3cnnc23)c(C)n1 [Example 236, 8-(2,4-dimethyl-1H-imidazol-1-yl)-N-((5-fluoro-2,3-dihydrobenzofuran-4-yl)methyl)-[1,2,4]triazolo[4,3-c]pyrimidin-5-amine]",0.0076
18,"Fc1ccc2c(c1CNc1ncc(-n3cccn3)c3nncn13)CCO2 [Example 237, N-((5-fluoro-2,3-dihydrobenzofuran-4-yl)methyl)-8-(1H-pyrazol-1-yl)-[1,2,4]triazolo[4,3-c]pyrimidin-5-amine]",0.0101
19,"Cc1ncn(-c2cnc(NCc3c(F)ccc4c3CCO4)n3cnnc23)n1 [Example 238, N-((5-fluoro-2,3-dihydrobenzofuran-4-yl)methyl)-8-(3-methyl-1H-1,2,4-triazol-1-yl)-[1,2,4]triazolo[4,3-c]pyrimidin-5-amine]",0.0179
20,"Cc1cnn(-c2cnc(NCc3c(F)ccc4c3CCO4)n3cnnc23)c1 [Example 239, N-((5-fluoro-2,3-dihydrobenzofuran-4-yl)methyl)-8-(4-methyl-1H-pyrazol-1-yl)-[1,2,4]triazolo[4,3-c]pyrimidin-5-amine]",0.0382
21,"Fc1ccc2c(c1CNc1ncc(-n3cncn3)c3nncn13)CCO2 [Example 241, N-((5-fluoro-2,3-dihydrobenzofuran-4-yl)methyl)-8-(1H-1,2,4-triazol-1-yl)-[1,2,4]triazolo[4,3-c]pyrimidin-5-amine]",0.0284
22,"Cc1ncccc1-c1cnc(NCc2c(F)ccc3c2C(O)CO3)n2cnnc12 (stereo not shown) [Example 242, 5-fluoro-4-(((8-(2-methylpyridin-3-yl)-[1,2,4]triazolo[4,3-c]pyrimidin-5-yl)amino)methyl)-2,3-dihydrobenzofuran-3-ol]",0.0634
23,"OCc1ncccc1-c1cnc(NCc2c(F)ccc3c2C(O)CO3)n2cnnc12 (stereo not shown) [Example 243, 5-fluoro-4-(((8-(2-(hydroxymethyl)pyridin-3-yl)-[1,2,4]triazolo[4,3-c]pyrimidin-5-yl)amino)methyl)-2,3-dihydrobenzofuran-3-ol]",0.0409
24,"Cc1c(-c2cnc(NCc3c(F)ccc4c3C(O)CO4)n3cnnc23)ccc[n+]1[O-] (stereo not shown) [Example 244, 3-(5-(((5-fluoro-3-hydroxy-2,3-dihydrobenzofuran-4-yl)methyl)amino)-[1,2,4]triazolo[4,3-c]pyrimidin-8-yl)-2-methylpyridine 1-oxide]",0.241

# These reach a lower IC50. Values come first.
row,IC50 [µM],SMILES
1,0.005,"Cc1nc(C(=O)N(C)C)ccc1-c1cnc(NCc2c(F)ccc3c2CCO3)n2cnnc12 [Example 199, 5-(5-(((5-fluoro-2,3-dihydrobenzofuran-4-yl)methyl)amino)-[1,2,4]triazolo[4,3-c]pyrimidin-8-yl)-N,N,6-trimethylpicolinamide]"
2,0.003,"Cn1cc(-c2cnc(NCc3c(F)ccc4c3CCO4)n3cnnc23)c(C(F)F)n1 [Example 200, 8-(3-(difluoromethyl)-1-methyl-1H-pyrazol-4-yl)-N-((5-fluoro-2,3-dihydrobenzofuran-4-yl)methyl)-[1,2,4]triazolo[4,3-c]pyrimidin-5-amine]"
3,0.0036,"Cc1ccc(-c2cnc(NCc3c(F)ccc4c3CCO4)n3cnnc23)c(C(F)F)n1 [Example 201, 8-(2-(difluoromethyl)-6-methylpyridin-3-yl)-N-((5-fluoro-2,3-dihydrobenzofuran-4-yl)methyl)-[1,2,4]triazolo[4,3-c]pyrimidin-5-amine]"
4,0.0014,Cc1nc(CN(C)C)ccc1-c1cnc(NCc2c(F)ccc3c2CCO3)n2cnnc12 [Example 223]
5,0.0022,"CCc1cc(C)c(-c2cnc(NCc3c(F)ccc4c3CCO4)n3cnnc23)cn1 [Example 224, 8-(6-ethyl-4-methylpyridin-3-yl)-N-((5-fluoro-2,3-dihydrobenzofuran-4-yl)methyl)-[1,2,4]triazolo[4,3-c]pyrimidin-5-amine]"
6,0.0045,"Cc1nc(OC2CC2)ncc1-c1cnc(NCc2c(F)ccc3c2CCO3)n2cnnc12 [Example 225, 8-(2-cyclopropoxy-4-methylpyrimidin-5-yl)-N-((5-fluoro-2,3-dihydrobenzofuran-4-yl)methyl)-[1,2,4]triazolo[4,3-c]pyrimidin-5-amine]"
7,0.0027,"CCc1ccc(-c2cnc(NCc3c(F)ccc4c3CCO4)n3cnnc23)c(C)n1 [Example 229, 8-(6-ethyl-2-methylpyridin-3-yl)-N-((5-fluoro-2,3-dihydrobenzofuran-4-yl)methyl)-[1,2,4]triazolo[4,3-c]pyrimidin-5-amine]"
8,0.002,"Cc1cn(-c2cnc(NCc3c(F)ccc4c3CCO4)n3cnnc23)cn1 [Example 233, N-((5-fluoro-2,3-dihydrobenzofuran-4-yl)methyl)-8-(4-methyl-1H-imidazol-1-yl)-[1,2,4]triazolo[4,3-c]pyrimidin-5-amine]"
9,0.0045,"OCc1ccc(-c2cnc(NCc3c(F)ccc4c3CCO4)n3cnnc23)cn1 [Example 234, (5-(5-(((5-fluoro-2,3-dihydrobenzofuran-4-yl)methyl)amino)-[1,2,4]triazolo[4,3-c]pyrimidin-8-yl)pyridin-2-yl)methanol]"
10,0.0014,"Fc1ccc2c(c1CNc1ncc(-n3ccnc3)c3nncn13)CCO2 [Example 240, N-((5-fluoro-2,3-dihydrobenzofuran-4-yl)methyl)-8-(1H-imidazol-1-yl)-[1,2,4]triazolo[4,3-c]pyrimidin-5-amine]"
